Test results reported in patent US12678412B2, “Substituted tolans for the modulation of microbial colonization” (BioMendics, LLC, priority 2017, dated 2026).

What was measured:
[1] = system: S. typhimurium TA98; assay: Dose range finding colony forming assay, strain TA98 with metabolic activation; type: cell-based
Procedure: A series of dose range finding assays were performed with five bacterial strains, S. typhimurium TA97a, TA98, TA100, TA1535, and E. coli WP2 uvrA pKM101, with and without metabolic activation at three plates per dose. The following doses, along with positive and negative controls, were tested: 5000, 2500, 1250, 500, 250, 125, 50, 20, 10, 5, 2, 1, and 0.2 μg/plate. The plates were evaluated for toxicity (a decrease in plate counts with increasing dose and/or a visible thinning of the background lawn) and for precipitation of the test article. Metabolic activation was included in some samples by adding phenobarbital/benzoflavone-induced rat liver S9 fractions with cofactors (S9 mix). Prior to use, freshly thawed aliquots of rat liver S9 were mixed with a sterile cofactor mix. The S9 mix contains a 10% liver S9 concentration and was refrigerated or stored on ice until used. When testing with metabolic activation, the S9 mix was used in the assay tube in place of phosphate buffer.
Dosing formulations were prepared to deliver all doses in a constant volume of 0.1 mL. The highest dose was prepared from test article weighed to the nearest 0.1 mg and the remaining formulations were prepared as serial dilutions from the high dose stock formulation. Using a permanent marking pen or computer printed labels, assay plates were labeled with the project and study numbers and the date. Assay plates and tubes were labeled with a unique identifier, which was used to match the assay tubes with the properly identified minimal glucose agar plate.
The pre-incubation method was used to perform the assay. The assay mix consisted of 0.1 mL of the test article formulation or control article, 0.5 mL S9 mix or phosphate buffer, and 0.1 mL of bacterial culture. Assay tubes were incubated at 37±1° C. with gentle agitation for 20±1 minutes, then 2.0-2.5 mL top agar was added to the assay mix and the top agar/assay mix poured onto appropriately labeled minimal glucose agar plates. Once the top agar hardened, the plates were inverted and incubated at 37±1° C. for 48±2 hours. Plates were counted with the Sorcerer (v. 2.2)/Ames Study Manager (v. 1.2.4) system from Perceptive Instruments (Suffolk, UK). With this system, plate counts are automatically transferred from the plate imager (Sorcerer) to a Study Manager spreadsheet, and the data are stored in a secure manner on an Oracle database. Some plates were hand counted, e.g., if sample precipitate interferes with automatic counting or toxicity results in the formation of microcolonies, in which case, counts for these plates were entered into the spreadsheet manually. Plates were scored also with the extent of colonization by a post fix code.

[2] = system: Acinetobacter baumannii; assay: Colony forming assay, 24 h plate assay, Acinetobacter baumannii; type: cell-based; conditions: Transcutol formulation, FIG. 11
Procedure: Proliferating cultures of Acinetobacter baumannii were used in a colony forming assay. Frozen stock cultures of Acinetobacter baumannii were thawed and grown overnight in tryptic soy broth (TSB) with shaking at 37° C. The overnight culture (0.5-1.0 mL) was added to 100 mL TSB and grown at 37° C. with shaking and monitored for an optical density of 0.20-0.38 to obtain a final inoculum suspension of approximately 10^8 CFU/mL.
BM3103 was dissolved into Transcutol (diethylene glycol monoethyl ether) at 2.5% w/v and vortexed until dissolved. This concentration was then serial diluted to achieve the remaining concentrations tested. Before plating, 100 μL of the final inoculum (10^8 CFU/mL) was mixed with 20 μL TSB broth and 80 μL of BM3103 doses or vehicle. Tobramycin, 600 μg/mL, served as the positive control. The final plating concentrations for BM3103 were 1, 0.5, 0.25, and 0.1% w/v (44 mM, 22 mM, 11 mM, 4 mM) BM3103. Vehicle and BM3103 formulations contained matching final concentration of 40% v/v Transcutol.
The Transcutol formulations combined with the inoculum were plated onto TSB agar plates. The plates were grown at 37° C. for 24 h, imaged, and the bacteria colonies were counted. The experiment was done four times at each concentration level described above. Colony counts for each treatment were tabulated and the Log of the colony forming units/mL (Log CFU/mL) were determined. The mean and the standard error of the mean were calculated for each treatment.

[3] = system: MRSA USA 400; assay: Bacterial cell death, DAPI/propidium iodide staining; type: cell-based, Staphylococcus aureus; conditions: 24 h treatment; 0.002 mM to 0.0625 mM; FIG. 13
Procedure: In order to confirm that treatment with BM3103 induced MRSA USA 400 bacterial cell death, both untreated cells and cells treated with BM3103 were stained with a combination of DAPI (nuclear stain) and Propidium iodide (PI, Live dead stain). In a healthy cell, PI is not able to cross the cell membrane and produces no fluorescent signal. If the cell is dead or has a compromised cell membrane it will bind DNA and fluoresces between 535 nm excitation and 617 nm emission. MRSA USA 400 were plated in a well plate at 10^8 CFU/mL in combination with BM3103 treatment or no treatment. Plates were placed at 37° C. for 24 h. Bacteria cells were co-stained with DAPI and PI at 50 μg/mL and 500 μg/mL, respectively, for 15 min at room temperature. Wells were washed with warmed phosphate buffered saline (PBS) and maintained in PBS throughout the imaging acquisition process. Images were captured using the same exposure limits for each filter. […] Concentrations above 0.0625 mM gave a similar result.

Q: Which results are given for `COc1ccc(C#Cc2ccc(O)cc2)cc1` [BM3103, 4-hydroxy-4′-methoxytolan]?
A: Colony forming units/plate ([1]; 1 μg/plate): 8.0 colony forming units/plate; Individual colony counts ([1]; 1 μg/plate): 8; Colony forming units/plate ([1]; 2 μg/plate): 18.0 colony forming units/plate; Individual colony counts ([1]; 2 μg/plate): 18; Colony forming units/plate ([1]; 5 μg/plate): 16.0 colony forming units/plate; Individual colony counts ([1]; 5 μg/plate): 16; Colony forming units/plate ([1]; 10 μg/plate): 16.0 colony forming units/plate; Individual colony counts ([1]; 10 μg/plate): 16; Colony forming units/plate ([1]; 20 μg/plate): 0.0 colony forming units/plate; Individual colony counts ([1]; 20 μg/plate): 0; Colony forming units/plate ([1]; 50 μg/plate): 0.0 colony forming units/plate; Individual colony counts ([1]; 50 μg/plate): 0; Colony forming units/plate ([1]; 125 μg/plate): 0.0 colony forming units/plate; Individual colony counts ([1]; 125 μg/plate): 0; Colony forming units/plate ([1]; 250 μg/plate): 0.0 colony forming units/plate; Individual colony counts ([1]; 250 μg/plate): 0; Colony forming units/plate ([1]; 500 μg/plate): 0.0 colony forming units/plate; Individual colony counts ([1]; 500 μg/plate): 0; Plate postfix code (individual colony counts) ([1]; 500 μg/plate): A P; Colony forming units/plate ([1]; 1250 μg/plate): 0.0 colony forming units/plate; Individual colony counts ([1]; 1250 μg/plate): 0; Plate postfix code (individual colony counts) ([1]; 1250 μg/plate): A P; Colony forming units/plate ([1]; 2500 μg/plate): 0.0 colony forming units/plate; Individual colony counts ([1]; 2500 μg/plate): 0; Plate postfix code (individual colony counts) ([1]; 2500 μg/plate): A P; Colony forming units/plate ([1]; 5000 μg/plate): 0.0 colony forming units/plate; Individual colony counts ([1]; 5000 μg/plate): 0; Plate postfix code (individual colony counts) ([1]; 5000 μg/plate): A P; Reduction of Acinetobacter baumannii bacterial counts ([2]; 0.1%): no reduction; Reduction of Acinetobacter baumannii bacterial counts ([2]; 0.25%): slight reduction; Reduction of Acinetobacter baumannii bacterial counts ([2]; 0.5%): 4 fold; Reduction of Acinetobacter baumannii bacterial counts ([2]; 1%): almost a complete reduction; PI staining (cell death) [3]: dose dependent increase in PI staining
